Data reported in ChEMBL document CHEMBL3872247, “Discovery of dual positive allosteric modulators (PAMs) of the metabotropic glutamate 2 receptor and CysLT1 antagonists for treating migraine headache” (Bioorg Med Chem Lett, 2017).

Columns and labels:
[1] = target: T1, Metabotropic glutamate receptor 1 (Homo sapiens, UniProt Q13255); assay: Agonist activity at recombinant human mGlu1 expressed in hamster AV12 cells expressing EAAT1 assessed as increase in intracellular calcium level measured after 24 hrs by FLIPR assay; format: functional, cell-based
T1 sequence (Q13255 whole entry): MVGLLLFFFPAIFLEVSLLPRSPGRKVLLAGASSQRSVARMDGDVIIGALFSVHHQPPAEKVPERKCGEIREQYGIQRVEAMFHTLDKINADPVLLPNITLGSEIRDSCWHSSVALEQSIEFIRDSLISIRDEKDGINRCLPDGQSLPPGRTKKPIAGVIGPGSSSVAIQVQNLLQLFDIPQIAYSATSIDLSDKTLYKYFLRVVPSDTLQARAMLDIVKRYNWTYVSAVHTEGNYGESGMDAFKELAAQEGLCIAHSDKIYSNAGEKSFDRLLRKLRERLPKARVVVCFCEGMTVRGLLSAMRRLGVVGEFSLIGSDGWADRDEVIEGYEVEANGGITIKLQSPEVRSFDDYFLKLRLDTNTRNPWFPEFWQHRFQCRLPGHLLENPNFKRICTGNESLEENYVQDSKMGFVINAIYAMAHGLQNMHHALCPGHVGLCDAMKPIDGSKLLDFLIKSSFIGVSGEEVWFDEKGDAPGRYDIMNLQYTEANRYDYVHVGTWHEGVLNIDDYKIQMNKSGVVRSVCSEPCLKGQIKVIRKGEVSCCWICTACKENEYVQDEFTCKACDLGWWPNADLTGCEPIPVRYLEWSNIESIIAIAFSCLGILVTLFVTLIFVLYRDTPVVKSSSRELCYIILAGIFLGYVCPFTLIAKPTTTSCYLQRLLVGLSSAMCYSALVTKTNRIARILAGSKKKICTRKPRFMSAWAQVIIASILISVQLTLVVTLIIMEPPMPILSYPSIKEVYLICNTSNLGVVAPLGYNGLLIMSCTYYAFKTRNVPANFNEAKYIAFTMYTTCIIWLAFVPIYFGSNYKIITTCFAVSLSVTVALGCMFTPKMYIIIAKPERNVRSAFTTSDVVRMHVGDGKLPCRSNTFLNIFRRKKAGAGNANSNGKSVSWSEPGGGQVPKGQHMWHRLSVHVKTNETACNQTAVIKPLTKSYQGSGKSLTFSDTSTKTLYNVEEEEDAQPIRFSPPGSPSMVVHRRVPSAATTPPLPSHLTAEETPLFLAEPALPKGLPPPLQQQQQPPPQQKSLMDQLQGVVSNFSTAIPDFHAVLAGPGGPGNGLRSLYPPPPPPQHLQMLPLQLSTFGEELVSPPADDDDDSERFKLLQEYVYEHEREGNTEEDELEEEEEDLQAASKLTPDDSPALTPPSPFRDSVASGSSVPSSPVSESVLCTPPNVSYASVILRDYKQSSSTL

[2] = target: Metabotropic glutamate receptor 8 (Homo sapiens) (UniProt O00222); assay: Agonist activity at recombinant human mGlu8 expressed in hamster AV12 cells expressing EAAT1 assessed as increase in intracellular Ca2+ level at 30 uM after 24 hrs by FLIPR assay; format: functional, cell-based
[3] = Tmax in rat at 1 mg/kg, po; format: ADME, organism-based; conditions: in vivo
[4] = target: Histamine H2 receptor (Homo sapiens) (UniProt P25021); assay: Displacement of [125I]APT from recombinant human histamine H2 receptor expressed in HEK293 cells at 10 uM measured after 120 mins by scintillation counting method; format: cell-based
[5] = target: T2, Metabotropic glutamate receptor 5 (Homo sapiens, UniProt P41594); assay: Antagonist activity at recombinant human mGlu5 receptor expressed in hamster AV12 cells expressing EAAT1 assessed as inhibition of glutamate-induced intracellular Ca2+ level measured after 24 hrs by FLIPR assay; format: functional, cell-based
T2 sequence (P41594 whole entry): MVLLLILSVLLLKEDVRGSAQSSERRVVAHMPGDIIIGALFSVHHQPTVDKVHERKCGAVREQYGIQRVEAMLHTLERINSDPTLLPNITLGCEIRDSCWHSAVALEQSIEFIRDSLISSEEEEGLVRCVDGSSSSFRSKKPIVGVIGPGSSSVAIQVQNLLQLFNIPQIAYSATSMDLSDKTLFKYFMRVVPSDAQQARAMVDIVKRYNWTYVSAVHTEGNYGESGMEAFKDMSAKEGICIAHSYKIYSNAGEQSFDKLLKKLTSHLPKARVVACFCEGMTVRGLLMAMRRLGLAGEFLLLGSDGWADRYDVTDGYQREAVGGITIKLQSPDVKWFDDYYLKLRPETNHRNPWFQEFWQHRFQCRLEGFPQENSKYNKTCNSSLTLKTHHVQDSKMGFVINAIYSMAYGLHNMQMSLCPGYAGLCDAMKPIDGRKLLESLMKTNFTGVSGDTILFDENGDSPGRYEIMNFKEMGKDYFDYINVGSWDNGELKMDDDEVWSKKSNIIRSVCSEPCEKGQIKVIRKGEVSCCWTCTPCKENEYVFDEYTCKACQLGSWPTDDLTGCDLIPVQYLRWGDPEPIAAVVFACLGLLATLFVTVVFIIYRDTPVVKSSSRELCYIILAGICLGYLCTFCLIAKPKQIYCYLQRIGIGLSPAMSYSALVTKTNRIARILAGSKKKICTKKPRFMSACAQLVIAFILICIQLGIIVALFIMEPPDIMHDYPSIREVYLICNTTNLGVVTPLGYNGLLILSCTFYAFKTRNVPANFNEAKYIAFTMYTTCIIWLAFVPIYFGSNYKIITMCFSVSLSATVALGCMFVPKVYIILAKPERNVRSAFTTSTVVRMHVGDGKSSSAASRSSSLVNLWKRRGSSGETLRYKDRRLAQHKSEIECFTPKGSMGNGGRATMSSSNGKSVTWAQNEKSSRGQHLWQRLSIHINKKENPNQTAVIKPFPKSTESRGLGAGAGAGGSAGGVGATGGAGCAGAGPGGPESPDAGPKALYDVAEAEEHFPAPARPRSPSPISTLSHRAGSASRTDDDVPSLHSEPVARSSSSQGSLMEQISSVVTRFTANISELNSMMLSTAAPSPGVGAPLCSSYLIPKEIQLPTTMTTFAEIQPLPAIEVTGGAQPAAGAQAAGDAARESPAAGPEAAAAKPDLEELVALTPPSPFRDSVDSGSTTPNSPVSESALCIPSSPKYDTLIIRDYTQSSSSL

[6] = target: 5-hydroxytryptamine receptor 7 (Homo sapiens, UniProt P34969); assay: Displacement of [3H]LSD from human 5HT7 receptor expressed in CHO cells after 120 mins by scintillation counting method; format: cell-based
[7] = target: T3, Metabotropic glutamate receptor 3 (Homo sapiens, UniProt Q14832); assay: Antagonist activity at recombinant human mGlu3 receptor expressed in hamster AV12 cells expressing EAAT1 assessed as inhibition of glutamate-induced intracellular Ca2+ level measured after 24 hrs by FLIPR assay; format: functional, cell-based
T3 sequence (Q14832 whole entry): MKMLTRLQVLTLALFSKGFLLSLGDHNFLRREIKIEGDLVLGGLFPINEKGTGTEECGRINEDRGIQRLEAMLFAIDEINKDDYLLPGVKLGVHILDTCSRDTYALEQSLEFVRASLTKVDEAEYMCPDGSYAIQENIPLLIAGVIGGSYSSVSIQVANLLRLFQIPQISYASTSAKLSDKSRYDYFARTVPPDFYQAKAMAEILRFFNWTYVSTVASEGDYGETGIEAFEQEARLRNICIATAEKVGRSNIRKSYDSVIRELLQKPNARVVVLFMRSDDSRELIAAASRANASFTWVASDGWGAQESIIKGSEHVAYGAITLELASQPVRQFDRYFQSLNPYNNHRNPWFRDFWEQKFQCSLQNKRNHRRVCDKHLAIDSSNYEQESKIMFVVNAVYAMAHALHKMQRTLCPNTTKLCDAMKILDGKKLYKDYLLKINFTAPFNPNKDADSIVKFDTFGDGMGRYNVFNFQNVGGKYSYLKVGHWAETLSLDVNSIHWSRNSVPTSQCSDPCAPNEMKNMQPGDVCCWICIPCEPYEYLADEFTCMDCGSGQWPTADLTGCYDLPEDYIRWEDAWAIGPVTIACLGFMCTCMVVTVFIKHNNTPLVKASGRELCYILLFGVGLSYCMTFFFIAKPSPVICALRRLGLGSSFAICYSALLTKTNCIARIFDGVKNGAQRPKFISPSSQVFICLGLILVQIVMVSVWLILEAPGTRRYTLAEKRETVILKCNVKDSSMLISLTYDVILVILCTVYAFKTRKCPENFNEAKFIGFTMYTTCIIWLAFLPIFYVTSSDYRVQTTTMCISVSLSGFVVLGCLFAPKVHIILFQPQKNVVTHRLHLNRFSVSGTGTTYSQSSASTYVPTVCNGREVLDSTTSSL

Cytochrome P450 2D6 = Cytochrome P450 2D6 (Homo sapiens, UniProt P10635); assay: Inhibition of CYP2D6 (unknown origin); format: ADME
[8] = Half life in dog at 0.5 mg/kg, iv; format: ADME, organism-based, Canis lupus familiaris; conditions: in vivo
[9] = target: 5-hydroxytryptamine receptor 5A (Homo sapiens, UniProt P47898); assay: Displacement of human 5HT5A receptor expressed in HEK293 cells after 120 mins by scintillation counting method; format: cell-based
[10] = target: T3, Metabotropic glutamate receptor 3; assay: Agonist activity at recombinant human mGlu3 expressed in hamster AV12 cells expressing EAAT1 assessed as increase in intracellular calcium level measured after 24 hrs by FLIPR assay; format: functional, cell-based
[11] = Half life in rat at 1 mg/kg, iv; format: ADME, organism-based; conditions: in vivo
[12] = target: 5-hydroxytryptamine receptor 1B (Homo sapiens, UniProt P28222); assay: Activity at human 5HT1B receptor
Chain of 5-hydroxytryptamine receptor 1B (P28222 whole entry): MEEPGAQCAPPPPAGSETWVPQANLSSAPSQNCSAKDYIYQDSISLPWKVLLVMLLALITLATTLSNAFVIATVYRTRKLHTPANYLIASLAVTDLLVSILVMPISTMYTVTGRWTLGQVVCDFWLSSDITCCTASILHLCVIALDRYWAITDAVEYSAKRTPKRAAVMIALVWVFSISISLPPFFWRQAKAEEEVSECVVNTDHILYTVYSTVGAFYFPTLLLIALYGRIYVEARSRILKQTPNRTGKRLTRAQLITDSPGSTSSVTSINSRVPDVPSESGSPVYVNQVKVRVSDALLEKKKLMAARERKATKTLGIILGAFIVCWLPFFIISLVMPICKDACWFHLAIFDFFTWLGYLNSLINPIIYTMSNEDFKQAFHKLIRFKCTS

[13] = Cmax in rat at 1 mg/kg, iv; format: ADME, organism-based; design: dose 1 mg/kg, route intravenous; conditions: in vivo
[14] = Cmax in dog at 0.5 mg/kg, iv; format: ADME, organism-based, Canis lupus familiaris; design: dose 0.5 mg/kg, route intravenous; conditions: in vivo
[15] = target: Metabotropic glutamate receptor 4 (Homo sapiens) (UniProt Q14833); assay: Positive allosteric modulation of recombinant human mGlu4 receptor expressed in hamster AV12 cells expressing EAAT1 assessed as potentiation of glutamate-induced intracellular Ca2+ level at 20 uM after 24 hrs by FLIPR assay; format: functional, cell-based
[16] = target: T4, Metabotropic glutamate receptor 2 (Homo sapiens, UniProt Q14416); assay: Antagonist activity at recombinant human mGlu2 receptor expressed in hamster AV12 cells expressing EAAT1 assessed as inhibition of glutamate-induced increase in intracellular Ca2+ level measured after 24 to 48 hrs by FLIPR assay; format: functional, cell-based
T4 sequence (Q14416 whole entry): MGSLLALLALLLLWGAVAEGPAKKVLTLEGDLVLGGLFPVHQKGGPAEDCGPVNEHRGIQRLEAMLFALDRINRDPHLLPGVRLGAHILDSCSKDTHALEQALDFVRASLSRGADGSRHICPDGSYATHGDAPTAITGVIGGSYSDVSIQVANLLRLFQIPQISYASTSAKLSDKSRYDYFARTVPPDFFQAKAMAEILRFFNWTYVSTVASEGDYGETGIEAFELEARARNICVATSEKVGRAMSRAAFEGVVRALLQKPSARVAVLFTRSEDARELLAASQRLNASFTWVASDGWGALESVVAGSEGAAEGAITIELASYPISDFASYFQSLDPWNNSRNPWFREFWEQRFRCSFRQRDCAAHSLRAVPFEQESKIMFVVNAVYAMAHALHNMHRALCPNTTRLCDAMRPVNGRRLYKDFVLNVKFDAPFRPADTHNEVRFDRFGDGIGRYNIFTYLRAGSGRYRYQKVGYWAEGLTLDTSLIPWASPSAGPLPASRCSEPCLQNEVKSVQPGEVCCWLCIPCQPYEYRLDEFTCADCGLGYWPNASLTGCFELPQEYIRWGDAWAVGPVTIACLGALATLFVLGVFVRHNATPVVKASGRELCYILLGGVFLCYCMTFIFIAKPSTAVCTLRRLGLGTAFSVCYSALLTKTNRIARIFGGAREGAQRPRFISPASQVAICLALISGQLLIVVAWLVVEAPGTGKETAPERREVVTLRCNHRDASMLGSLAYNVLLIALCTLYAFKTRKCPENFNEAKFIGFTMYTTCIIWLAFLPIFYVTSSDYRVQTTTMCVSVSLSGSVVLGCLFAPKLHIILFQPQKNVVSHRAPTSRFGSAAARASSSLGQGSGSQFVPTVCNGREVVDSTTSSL

[17] = Oral bioavailability in dog at 1 mg/kg; format: ADME, organism-based, Canis lupus familiaris; conditions: in vivo
Rattus norvegicus [18] = assay: Decrease in plasma protein extravasation in fasted Harlan Sprague-Dawley rat model of migraine compound administered via oral gavage 1 hr prior to electrical stimulation of trigeminal ganglion measured after 15 mins by FITC-BSA based fluorescence assay; format: functional
Cytochrome P450 2C9 = Cytochrome P450 2C9 (Homo sapiens, UniProt P11712); assay: Inhibition of CYP2C9 (unknown origin); format: ADME
[19] = target: 5-hydroxytryptamine receptor 6 (Homo sapiens, UniProt P50406); assay: Displacement of [3H]LSD from human 5HT6 receptor expressed in CHO cells after 120 mins by scintillation counting method; format: cell-based
[20] = target: Adenosine receptor A1 (Homo sapiens) (UniProt P30542); assay: Displacement of [3H]DPCPX from human adenosine A1 receptor at 10 uM measured after 60 mins by scintillation counting method
[21] = Cmax in dog at 1 mg/kg, po; format: ADME, organism-based, Canis lupus familiaris; design: dose 1 mg/kg, route oral; conditions: in vivo
[22] = target: 5-hydroxytryptamine receptor 2B (Homo sapiens, UniProt P41595); assay: Activity at human 5T2B receptor
[23] = target: 5-hydroxytryptamine receptor 1A (Homo sapiens, UniProt P08908); assay: Activity at human 5HT1A receptor
Chain of 5-hydroxytryptamine receptor 1A (P08908 whole entry): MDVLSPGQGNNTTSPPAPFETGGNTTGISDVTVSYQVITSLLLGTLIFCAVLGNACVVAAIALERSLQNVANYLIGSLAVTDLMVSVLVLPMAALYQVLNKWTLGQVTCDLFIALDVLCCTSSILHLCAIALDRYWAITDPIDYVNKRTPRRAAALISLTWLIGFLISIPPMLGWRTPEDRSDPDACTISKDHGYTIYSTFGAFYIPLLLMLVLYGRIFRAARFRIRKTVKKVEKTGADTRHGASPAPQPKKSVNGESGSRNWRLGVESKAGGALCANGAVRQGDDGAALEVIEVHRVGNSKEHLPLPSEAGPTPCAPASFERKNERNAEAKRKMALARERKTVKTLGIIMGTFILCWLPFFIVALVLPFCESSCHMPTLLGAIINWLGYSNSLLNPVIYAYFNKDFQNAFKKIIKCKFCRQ

[24] = Volume of distribution in dog at 0.5 mg/kg, iv; format: ADME, organism-based, Canis lupus familiaris; conditions: in vivo
[25] = target: T1, Metabotropic glutamate receptor 1; assay: Antagonist activity at recombinant human mGlu1 receptor expressed in hamster AV12 cells expressing EAAT1 assessed as inhibition of glutamate-induced intracellular Ca2+ level measured after 24 hrs by FLIPR assay; format: functional, cell-based
[26] = target: 5-hydroxytryptamine receptor 2C (Homo sapiens, UniProt P28335); assay: Activity at human 5T2C receptor
[27] = Oral bioavailability in rat at 1 mg/kg; format: ADME, organism-based; conditions: in vivo
[28] = Cmax in rat at 1 mg/kg, po; format: ADME, organism-based; design: dose 1 mg/kg, route oral; conditions: in vivo
[29] = target: T4, Metabotropic glutamate receptor 2; assay: Positive allosteric modulation of recombinant human mGlu2 receptor expressed in hamster AV12 cells expressing EAAT1 assessed as potentiation of glutamate-induced intracellular calcium level measured after 24 to 48 hrs by FLIPR assay; format: functional, cell-based
[30] = Volume of distribution in rat at 1 mg/kg, iv; format: ADME, organism-based; conditions: in vivo
hERG (KCNH2) = hERG (KCNH2) (Homo sapiens, UniProt Q12809); assay: Displacement of [3H]dofetilide from recombinant human ERG expressed in HEK293 cells measured after 60 mins by scintillation counting method; format: cell-based; conditions: HEK293 cells expressing recombinant human ERG, probe [3H]dofetilide
[31] = target: Muscarinic acetylcholine receptor (Rattus norvegicus) (UniProt P08482+P08483+P08485+P08911+P10980); assay: Displacement of [3H]QNB from non-selective muscarinic receptor in rat cerebral cortex at 10 uM measured after 120 mins by scintillation counting method
[32] = target: 5-hydroxytryptamine receptor 2A (Homo sapiens, UniProt P28223); assay: Activity at human 5HT2A receptor
Rattus norvegicus [33] = species on record: Rattus norvegicus; assay: Displacement of [3H]GABA from non-selective GABA channel in rat cerebral cortex at 10 uM measured after 60 mins by scintillation counting method
[34] = Clearance in rat at 1 mg/kg, iv; format: ADME, organism-based; conditions: in vivo
[35] = target: T2, Metabotropic glutamate receptor 5; assay: Agonist activity at recombinant human mGlu5 expressed in hamster AV12 cells expressing EAAT1 assessed as increase in intracellular calcium level measured after 24 hrs by FLIPR assay; format: functional, cell-based
[36] = target: Beta-1 adrenergic receptor (Homo sapiens) (UniProt P08588); assay: Displacement of [3H](-)CGP12177 from recombinant human beta1 adrenergic receptor expressed in HEK293 cells at 10 uM measured after 60 mins by scintillation counting method; format: cell-based

EC50 [1]: > 25 µM | Activity [2]: < 20% | Tmax [3]: 2.5 h | inhibition [4]: 10.2% | IC50 [5]: > 12.5 µM | Ki [6]: > 3.98 µM | IC50 [7]: > 12.5 µM | INH (Cytochrome P450 2D6): > 40 µM | half-life [8]: 2 h | Ki [9]: > 6.9 µM | EC50 [10]: > 25 µM | half-life [11]: 2 h | Ki [12]: > 3.58 µM | Cmax [13]: 2160 ng/mL | Cmax [14]: 2540 ng/mL | Activity [15]: < 40% | IC50 [16]: > 12.5 µM | bioavailability [17]: 32% | INH (Cytochrome P450 2C9): > 40 µM | Ki [19]: > 1.79 µM | inhibition [20]: -4.5% | Cmax [21]: 143 ng/mL | Ki [22]: > 3.3 µM | Ki [23]: > 3.02 µM | Vd [24]: 2 L/kg | IC50 [25]: > 8 µM | Ki [26]: > 7.87 µM | bioavailability [27]: 39% | Cmax [28]: 78 ng/mL | EC50 [29]: 0.201 to 0.287 µM | Vd [30]: 2 L/kg | inhibition [31]: 22.9% | Ki [32]: > 7.47 µM | inhibition (Rattus norvegicus [33]): -6% | clearance [34]: 11 mL/min/kg | EC50 [35]: > 25 µM | inhibition [36]: 5.1%
SMILES: CC(=O)c1ccc(OCc2ccc(Oc3cc(-c4nn[nH]n4)ccn3)cc2)c(C)c1O
Activity (Rattus norvegicus [18]): Dose-dependent effect | ID100 (Rattus norvegicus [18]): 1 µg/kg | inhibition at 1 h (hERG (KCNH2)): < 15%
